Test results reported in US6875578B2, “System for cell-based screening” (priority 1997, dated 2005).
“Also recorded” adds a separate entry of the source.

Tests used:
[1] = tested on: p38 MAPK and NF-κB pathways; assay: Dual labeling assay of the p38 MAPK and NF-κB pathways; format: cell-based; conditions: added alone; two different cell types
Description: The assay we present here measures, as one of its parameters, p38 activation using immunolocalization of the phosphorylated form of p38 in toxin-treated cells. The assay was developed to be flexible enough to include the simultaneous measurement of other parameters within the same individual cells. Because the signal transduction pathway mediated by the transcription factor NF-κB is also known to be involved in the cell stress response, we included the activation of NF-κB as a second parameter in the same assay.
Multiple cell types, model toxins, and antibodies were tested, and significant stimulation of both pathways was measured in a high-content mode. The phospho-p38 antibodies used in this study were purchased from Sigma Chemical Company (St. Louis, Mo.). We report that at least two cell stress signaling pathways can not only be measured simultaneously, but are differentially responsive to classes of model toxins.

[2] = tested on: microtubule arrays (tubulin-GFP chimera); assay: Microtubule disruption assay, LLCPK cells with tubulin-GFP biosensor; format: cell-based, pig; conditions: 10-500 nM, 12 hour time point
Protocol: For microtubule disruption assays, LLCPK cells stably transfected with a tubulin-GFP biosensor plasmid were plated on 96 well cell culture dishes at 50-60% confluence and cultured overnight at 37° C., 5% CO2. […] The cells were then observed with the cell screening system described above, at a 12 hour time point.

caspase-3 [3] = assay: Caspase-3 biosensor apoptosis assay, BHK cells; format: cell-based; conditions: BHK cells transfected with the caspase 3 biosensor
Protocol: (§1) For DNA transfection, BHK cells and MCF-7 cells were cultured to 50-70% confluence in 6 well plates containing 3 ml of minimal Eagle's medium (MEM) with 10% fetal calf serum, 1 mM L-glutamine, 50 μg/ml streptomycin, 50 μg/ml penicillin, 0.1 mM non-essential amino acids, 1 mM sodium pyruvate and 10 μg/ml of bovine insulin (for MCF-7 cell only) at 37° C. in a 5% CO2 incubator for about 36 hours. The cells were washed with serum free MEM media and incubated for 5 hours with 1 ml of transfection mixture containing 1 μg of the appropriate plasmid and 4 μg of lipofectimine (BRL) in the serum free MEM media. Subsequently, the transfection medium was removed and replaced with 3 ml of normal culture media. The transfected cells were maintained in growth medium for at least 16 hours before performing selection of the stable cells based on standard molecular biology methods (Ausubel. et al 1995).
For apoptosis assays, the cells (BHK, MCF-7) stably transfected with the appropriate protease biosensor expression vector were plated on tissue culture treated 96-well plates at 50-60% confluence and cultured overnight at 37° C., 5% CO2. […]
(§2) The biosensor response is measured by quantitating the effective cytoplasm-to-nuclear translocation of the signal (see above). […]

caspase-3 [4] = assay: Caspase-3 biosensor apoptosis assay, MCF-7 cells; format: cell-based; conditions: MCF-7 cells
Protocol: as §1
For apoptosis assays, the cells (BHK, MCF-7) stably transfected with the appropriate protease biosensor expression vector were plated on tissue culture treated 96-well plates at 50-60% confluence and cultured overnight at 37° C., 5% CO2. Varying concentrations of cis-platin, staurosporine, or paclitaxel in normal culture media were freshly prepared from stock and added to cell culture dishes to replace the old culture media. The cells were then observed with the cell screening system of the present invention at the indicated time points either as live cell experiments or as fixed end-point experiments.
This biosensor is restricted to the cytoplasm by the reactant target sequence. The reactant target sequence is the annexin II cytoskeletal binding domain ([…]) (SEQ ID NO:124) (FIG. 29C) (Eberhard et al. 1997. Mol. Biol. Cell 8:293a). The enzyme recognition site corresponds to two copies of the amino acid sequence DEVD (SEQ ID NO:60) (FIG. 29B), which serves as the recognition site of caspase-3. […]
as §2

caspase-3 [5] = conditions: MCF-7 cells; accompanied by cleavage of PARP; cited from earlier work
MCF-7 cells [6] = assay: Apoptosis nuclear morphology, MCF-7 cells; format: cell-based; conditions: 30 hours
Protocol: (§3) Cells were plated into 96-well plates at densities of 3×10^3 to 1×10^4 cells/well. The following day apoptotic inducers were added at indicated concentrations and cells were incubated for indicated time periods (usually 16-30 hours). The next day medium was removed and cells were stained with 5 μg/ml Hoechst (Molecular Probes, Inc.) in fresh medium and incubated for 30 minutes at 37° C. Cells were washed in Hank's Balanced Salt Solution (HBSS) and fixed with 3.7% formaldehyde in HBSS at room temperature. Cells were washed 2×with HBSS at room temperature and the plate was sealed.
(§4) Quantitation of changes in nuclear morphology upon induction of apoptosis was accomplished by (1) measuring the effective size of the nuclear region; and (2) measuring the degree of convolution of the perimeter.

BHK cells [7] = assay: Apoptosis mitochondrial mass/potential, BHK cells; format: cell-based; conditions: 30 hours
Protocol: (§5) Cells were plated into 96-well plates at densities of 3×10^3 to 1×10^4 cells/well. The following day apoptotic inducers were added at the indicated concentrations and cells were incubated for the indicated time periods (usually 16-30 hours). Cells were stained with 5 μg/ml Hoechst (Molecular Probes, Inc.) and 750 nM MITOTRACKER™ Red (CMXRos, Molecular Probes, Inc.) in fresh medium and incubated for 30 minutes at 37° C. Cells were washed in HBSS and fixed with 3.7% formaldehyde in HBSS at room temperature. Plates were washed with HBSS and permeabilized with 0.5% v/v TRITON™ X-100 in HBSS at room temperature. Cells were washed 2× with HBSS at room temperature and the plate was sealed. For dual labeling of mitochondria, cells were treated with 200 nM MITOTRACKER™ Green and 200 nM MITOTRACKER™ Red for 0.5 hours before fixation.
(§6) The mitochondrial membrane potential is measured by labeling mitochondria with both MITOTRACKER™ Green FM and MITOTRACKER™ Red (Molecular Probes, mc). MITOTRACKER™ Red labeling is proportional to both mass and membrane potential. MITOTRACKER™ Green FM labeling is proportional to mass. The ratio of MITOTRACKER™ Red signal to the MITOTRACKER™ Green FM signal provides a measure of mitochondrial membrane potential (Poot and Pierce, 1999). This ratio normalizes the […]. […]

L929 cells [8] = assay: Apoptosis actin reorganization (f-actin content), L929 cells; format: cell-based, mouse; conditions: 30 hours
Protocol: (§7) Cells were plated in 96-well plates at densities of 3×10^3 to 1×10^4 cells/well. The following day apoptotic inducers were added at indicated concentrations. Cells were incubated for the indicated time periods (usually 16-30 hours). The next day the medium was removed and cells were stained with 5 μg/ml Hoechst (Molecular Probes, Inc.) in fresh medium and incubated for 30 minutes at […]. Cells were washed in HBSS and fixed with 3.7% formaldehyde in HBSS at room temperature. Plates were washed with HBSS and permeabilized with 0.5% v/v Triton X-100 in HBSS at room temperature. Plates were washed in HBSS and stained with 100 μl of 1 U/ml of Alexa 488 Phalloidin stock (100 μl/well, Molecular Probes, Inc.). Cells were washed 2×with HBSS at RT and the plate was sealed.
(§8) Quantitation of f-actin content was accomplished by measuring the intensity of phalloidin staining around the nucleus. This was determined to be a reasonable approximation of a full cytoplasmic average of the intensity. The mask used to approximate this cytoplasmic measure was derived from the nuclear mask defined by the Hoechst stain. Derivation was accomplished by combinations of erosions and dilations.

L929 cells [9] = assay: Apoptosis mitochondrial mass/potential, L929 cells; format: cell-based, mouse; conditions: 30 hours
Protocol: as §5, §6

L929 cells [10] = assay: Apoptosis nuclear morphology, L929 cells; format: cell-based, mouse; conditions: 30 hours
Protocol: as §3, §4

BHK cells [11] = assay: Apoptosis actin reorganization (f-actin content), BHK cells; format: cell-based; conditions: 30 hours
Protocol: as §7, §8

MCF-7 cells [12] = assay: Apoptosis mitochondrial mass/potential, MCF-7 cells; format: cell-based; conditions: 30 hours
Protocol: as §5, §6

BHK cells [13] = assay: Apoptosis nuclear morphology, BHK cells; format: cell-based; conditions: 30 hours
Protocol: as §3, §4

MCF-7 cells [14] = assay: Apoptosis actin reorganization (f-actin content), MCF-7 cells; format: cell-based; conditions: 30 hours
Protocol: as §7, §8

NF-κB [15] = assay: NF-κB immunolocalization in toxin treated 3T3 cells; format: cell-based
Description: (§9) For further studies, we characterized endogenous NF-κB activation by immunolocalization in toxin treated cells. The NF-κB antibodies used in this study were purchased from Santa Cruz Biotechnology, Inc. (Santa Cruz, Calif.), and secondary antibodies are from Molecular Probes (Eugene, Oreg.).
(§10) For the 3T3 and SNB19 cell types, we determined the effective concentrations that yield response levels of 50% of the maximum (EC50), expressed in units of mass per volume (ng/ml) and units of molarity. Based on molecular weights of 17 kD for both TNFα and IL-1α, the EC50 levels for these two compounds with 3T3 and SNB19 cell types are given in units of molarity in Table 1.
(§11) For these experiments, either 10 or 100 TNFα-treated 3T3 or SNB19 cells/well were tested. On the basis of the standard deviations measured for these samples, and by taking t-values for the student's t-test, we have estimated the minimum detectable doses for each case of cell type, compound, number of cells per well, and for different choices of how many wells are sampled per condition. The latter factor determines the number of degrees of freedom that are provided in the sample of data. Increasing the number of wells from 4 to 16, and increasing the number of cells per well from 10 to 100, improves the minimum detectable doses considerably. […] If the false positive rate is relaxed to 20%, a concentration of approximately half that value can be detected (0.83 ng/ml). One hundred cells can conveniently be sampled over a cell culture surface area of less than 1 mm^2.

NF-κB [16] = assay: NF-κB immunolocalization in toxin treated SNB19 cells; format: cell-based; conditions: based on molecular weights of 17 kD, read-out: EC50 (NF-κB activation)
Description: as §9, §10
as §11, with “data.” for “data. Increasing the number of wells from 4 to 16, and increasing the number of cells per well from 10 to 100, improves the minimum detectable doses considerably.”, “One hundred cells can conveniently be sampled over a cell culture surface area of less than 1 mm^2.” left out

Compound: COc1ccc(C[C@H]2NC[C@H](O)[C@H]2OC(C)=O)cc1 [Anisomycin]
- differential response of the p38 MAPK and NF-κB pathways [1]: activators of specific pathways

Compound: C=CC[C@@H](CC/C(C)=C/C=C/CC/C=C\[C@@H]1CSC([C@@H]2C[C@@H]2C)=N1)OC [Curacin A]
- Response of microtubule arrays [2]: Destabilization

Compound: COC(=O)Nc1nc2ccc(C(=O)c3cccs3)cc2[nH]1 [Nocodazole]
- Response of microtubule arrays [2]: Destabilization

Compound: CC[C@]1(O)C[C@@H]2CN(CCc3c([nH]c4ccccc34)[C@@](C(=O)OC)(c3cc4c(cc3OC)N(C)[C@H]3[C@@](O)(C(=O)OC)[C@H](OC(C)=O)[C@]5(CC)C=CCN6CC[C@]43[C@@H]65)C2)C1 [Vinblastine]
- Response of microtubule arrays [2]: Destabilization

Compound: N.N.[Cl][Pt][Cl] [cis-platin]
- caspase activation reported by the biosensor (caspase-3 [3]): accumulation of fluorescence in the nucleus

Compound: COc1cc([C@@H]2c3cc4c(cc3[C@@H](O[C@@H]3O[C@@H]5CO[C@@H](C)O[C@H]5[C@H](O)[C@H]3O)[C@H]3COC(=O)[C@H]23)OCO4)cc(OC)c1O [etoposide]
- Caspase-3 activity with the caspase biosensor (caspase-3 [4]; 15 h treatment with 100 μM etoposide): not detected
- time of peak response in caspase-3 activity after stimulation (caspase-3 [5]): 6 h

Compound: CN[C@@H]1C[C@H]2O[C@@](C)([C@@H]1OC)n1c3ccccc3c3c4c(c5c6ccccc6n2c5c31)C(=O)NC4 [staurosporine]
- change in nuclear morphology (MCF-7 cells [6]): nuclear condensation
- mitochondrial changes (mass / membrane potential) (BHK cells [7]): either a decrease in membrane potential at lower concentrations of staurosporine, or an increase in mass at higher concentrations of staurosporine; also recorded: increases in mitochondrial mass
- change in peri-nuclear f-actin content (L929 cells [8]): dose-dependent increases in f-actin content
- change in peri-nuclear f-actin content (L929 cells [8]; listed as Staurosporine): induced increases in f-actin
- mitochondrial changes (mass / membrane potential) (L929 cells [9]): clear increase in mitochondrial mass; also recorded: increases in mitochondrial mass
- change in nuclear morphology (L929 cells [10]): dose-dependent change in nuclear morphology
- change in nuclear morphology (L929 cells [10]; listed as Staurosporine): classic nuclear fragmentation
- magnitude of caspase activation relative to comparator (caspase-3 [4]; maximum magnitude): approximately one-half that demonstrated with cis-platin in BHK cells
- change in peri-nuclear f-actin content (BHK cells [11]): dose-dependent increase in f-actin
- change in peri-nuclear f-actin content (BHK cells [11]; listed as Staurosporine): induced increases in f-actin
- mitochondrial changes (mass / membrane potential) (MCF-7 cells [12]): consistent decrease in mitochondrial membrane potential; also recorded: a decrease in membrane potential
- change in nuclear morphology (BHK cells [13]): concentration dependent changes
- change in nuclear morphology (BHK cells [13]; listed as Staurosporine): nuclear condensation at lower doses and nuclear fragmentation at higher doses
- change in peri-nuclear f-actin content (MCF-7 cells [14]): either a decrease or increase depending on the concentration of staurosporine
- change in peri-nuclear f-actin content (MCF-7 cells [14]; listed as Staurosporine): concentration-dependent response

Compound: IL-1α: model toxin, molecular weight 17 kD
- EC50 (NF-κB activation) (NF-κB [15]; based on molecular weights of 17 kD): 0.24 10^−12 moles/liter
- EC50 (NF-κB [16]): 59 pM
- differential response of the p38 MAPK and NF-κB pathways [1]: activators of specific pathways

Compound: tumor necrosis factor [TNFα]
- EC50 value (NF-κB activation) (NF-κB [15]): 0.15 ng/mL
- EC50 (NF-κB [15]; based on molecular weights of 17 kD, read-out: EC50 (NF-κB activation)): 8.8 pM
- EC50 (NF-κB [16]): 5.9 pM
- differential response of the p38 MAPK and NF-κB pathways [1]: activators of specific pathways
